Measured values as given in patent US8716530B2, “Facially amphiphilic polyaryl and polyarylalkynyl polymers and oligomers and uses thereof” (The Trustess of the University of Pennsylvania, priority 2004, dated 2014).
Converted amounts (≈) assume the structure as drawn. “And” between values parts separate entries of the source, which are not always exact repeats. Equal entries are not always repeated. Where two headings read alike, the source gives them in different places.

Columns and labels:
[1] = system: Enterococcus faecalis; format: cell-based
[2] = system: Bacillus subtilis; format: cell-based
[3] = system: Proteus vulgaris; format: cell-based
[4] = system: Haemophilus influenzae; test: MIC100, clinical isolates of hospital-acquired pathogens (Table 7); format: cell-based; settings: Mueller Hinton+NAD+yeast extract+hematin, in µg/mL
[5] = system: Staphylococcus epidermidis; format: cell-based
[6] = system: Streptococcus gordonii; format: cell-based
[7] = system: S. aureus; format: cell-based; settings: S. aureus passaged at 0.5x MIC100; by passage 16 (17 consecutive passages)
[8] = system: Escherichia coli; format: cell-based
[9] = system: Enterobacter cloacae; format: cell-based
[10] = system: F. tularensis; test: microbe, parasite or virus in culture; format: cell-based; settings: Francisella tularensis
[11] = system: Candida albicans; test: MIC100, clinical isolates of hospital-acquired pathogens (Table 7); format: cell-based; settings: one table line per isolate, RPMI synthetic medium, in µg/mL
[12] = system: Proteus mirabilis; format: cell-based
[13] = system: Staphylococcus aureus; test: MIC100, control microbial agent, NCCLS guidelines; format: cell-based; settings: strain ATCC29213, control organism (Table 5), read-out: MIC100 S. aureus ATCC29213
[14] = system: Streptococcus pneumoniae; test: MIC100, clinical isolates of hospital-acquired pathogens (Table 7); format: cell-based
[15] = system: human erythrocytes; test: Hemolysis of human erythrocytes (HC50)
[16] = system: Y. pestis; test: microbe, parasite or virus in culture; format: cell-based; settings: Yersinia pestis, 30 h, read-out: MIC100 Y. pestis (30 hr)
[17] = system: Klebsiella aerogenes; format: cell-based
[18] = system: Neisseria sicca; format: cell-based
[19] = system: Staphylococcus saprophyticus; format: cell-based
[20] = system: Pseudomonas aeruginosa; format: cell-based
[21] = system: E. coli; test: MIC100, modified NCCLS microbroth dilution (Table 6); format: cell-based; settings: Escherichia coli
[22] = system: Staphylococcus aureus; format: cell-based
[23] = system: B. subtilis; test: Modified NCCLS microbroth dilution MIC assay; settings: Bacillus subtilis
[24] = system: Serratia marcescens; format: cell-based
[25] = system: Pseudomonas stuarti; format: cell-based
[26] = system: Listeria monocytogenes; format: cell-based
[27] = system: Salmonella typhimurium; format: cell-based
[28] = system: Aspergillus fumigatus; test: Antifungal MIC/MFC, NCCLS M38-A; format: cell-based
Description: (§1) MIC endpoints were determined for A. fumigatus, P. funiculosum, C. globosum and T. virens according to current NCCLS guidelines defined for testing A. fumigatus (NCCLS M38-A, 2002). […] Amphotericin B was included in the screen with C. albicans as a positive control. All MIC testing was done in 96 well microtiter panels using RPMI 1640 (with glutamine and without bicarbonate) broth as a growth media. Incubation was at 35° C., and growth was read at 48, 72, (and for some slow growing fungal species, 96 hours). […] MFC (minimal fungicidal concentrations) endpoints were calculated using a modified methodology based on the NCCLS defined methodology for measuring minimal bactericidal concentrations (MBC). Experimentation to calculate MFCs was undertaken only for those organisms for which an MIC endpoint was satisfactorily calculated. MFCs are defined as the concentration required to reduce the number of viable organisms by at least 90%.

[29] = system: Trichoderma virens; test: Antifungal MIC/MFC, NCCLS M38-A; format: cell-based
Description: as §1

[30] = system: Chaetomium globosum; test: Antifungal MIC/MFC, NCCLS M38-A; format: cell-based
Description: as §1

[31] = system: Penicillium funiculosum; test: Antifungal MIC/MFC, NCCLS M38-A; format: cell-based
Description: as §1

[32] = system: Moraxella catarrhalis; format: cell-based
[33] = system: B. anthracis; test: microbe, parasite or virus in culture; format: cell-based, Bacillus anthracis
[34] = system: Enterococcus faecalis; test: MIC100, clinical isolates of hospital-acquired pathogens (Table 7); format: cell-based; settings: control strain ATCC 29212
[35] = system: Streptococcus pyogenes; test: as above; format: cell-based; settings: Mueller Hinton+2-5% lysed horse blood, in µg/mL
[36] = system: Bacillus globigii; format: cell-based
[37] = system: Bacillus cereus; format: cell-based
[38] = concentration reducing viable organisms by at least 90%

`NCCc1cc(Br)cc(C#Cc2cccc(C#Cc3cc(Br)cc(CCN)c3)c2)c1` [Compound 3] showed an MIC100 Enterococcus faecalis [1] of 0.84 µg/mL (≈ 1.61 µM), an MIC100 Bacillus subtilis [2] of 1.7 µg/mL (≈ 3.25 µM) and an MIC100 Proteus vulgaris [3] of 3.4 µg/mL (≈ 6.51 µM). The “mic (MIC100) Haemophilus influenzae” value [4] was 4, the MIC100 Staphylococcus epidermidis [5] was 0.8 µg/mL (≈ 1.53 µM) and the MIC100 Streptococcus gordonii [6] was 1.7 µg/mL (≈ 3.25 µM). The “increase in MIC on serial passage” value [7] was “No consistent increase in the MIC”, the MIC100 Escherichia coli 6C4468 [8] was 1.7 µg/mL (≈ 3.25 µM) and the MIC100 Escherichia coli CIS [8] was 1.7 µg/mL (≈ 3.25 µM). For the same compound, the MIC100 Escherichia coli D31 [8] was 0.84 µg/mL (≈ 1.61 µM), the MIC100 Enterobacter cloacae [9] was 1.7 µg/mL (≈ 3.25 µM) and the MIC ([10]; read-out: MIC100 F. tularensis 17135) was 1 µg/mL (≈ 1.91 µM). For the same compound, the MIC ([10]; read-out: MIC100 F. tularensis 17137) was 1 µg/mL (≈ 1.91 µM), the “mic (MIC100) Candida albicans” value [11] was 0.5 and 1 and the MIC100 Proteus mirabilis [12] was over 6.6 µg/mL. The MIC [13] was 2 µg/mL (≈ 3.83 µM), the “mic (MIC100) Streptococcus pneumoniae” value ([14]; clinical isolates, no phenotype given, Mueller Hinton+2-5% lysed horse blood, in µg/mL) was 2 and the mic (MIC100) Streptococcus pneumoniae ATCC 49619 ([14]; control strain ATCC 49619) was 2 µg/mL. The “mic (MIC100) Streptococcus pneumoniae PEN-R” value ([14]; penicillin-resistant clinical isolates, Mueller Hinton+2-5% lysed horse blood, in µg/mL) was 2 and 1, the “Hemolysis HC50” value ([15]; human erythrocytes, one hour incubation, 50% hemoglobin release, Table 1) was 75 µg/mL and the HC50 ([15]; human erythrocytes, Table 2) was 75 µg/mL. For the same compound, the “Selectivity HC50/MIC E.coli” value ([15]; ratio of HC50 to E. coli MIC) was 88.2, the MIC [16] was 4 µg/mL (≈ 7.66 µM) and the MIC100 Klebsiella aerogenes [17] was 3.4 µg/mL (≈ 6.51 µM). It also gave an MIC100 Neisseria sicca [18] of 3.4 µg/mL (≈ 6.51 µM), an MIC100 Staphylococcus saprophyticus [19] of 0.8 µg/mL (≈ 1.53 µM) and an MIC100 Pseudomonas aeruginosa [20] of 3.4 µg/mL (≈ 6.51 µM). The MIC ([21]; strain ATCC25922, read-out: MIC100 E. coli ATCC25922) was 2 µg/mL (≈ 3.83 µM), the MIC ([21]; strain OC2530, read-out: MIC100 E. coli OC2530) was 0.5 µg/mL (≈ 0.957 µM) and the MIC100 Staphylococcus aureus [22] was 1.7 µg/mL (≈ 3.25 µM). For the same compound, the MIC ([23]; read-out: B. subtilis MIC) was 1.6 µg/mL (≈ 3.06 µM), the MIC90 ([23]; read-out: MIC90 B. subtilis) was 1.6 µg/mL (≈ 3.06 µM) and the MIC100 Serratia marcescens [24] was 3.4 µg/mL (≈ 6.51 µM). It also gave an MIC100 Pseudomonas stuarti [25] of over 6.6 µg/mL, an MIC100 Listeria monocytogenes [26] of 1.7 µg/mL (≈ 3.25 µM) and an MIC100 Salmonella typhimurium [27] of 3.4 µg/mL (≈ 6.51 µM). The “MIC Aspergillus fumigatus” value ([28]; RPMI 1640, 35° C.) was 32/32, the “MFC Aspergillus fumigatus” value [28, 38] was 32/32 and the “MIC Trichoderma virens” value ([29]; RPMI 1640, 35° C.) was 32/32. The “MFC Trichoderma virens” value [29, 38] was 32/32, the MIC Chaetomium globosum ([30]; RPMI 1640, 35° C.) was 0.5 µg/mL (≈ 0.957 µM) and the MFC Chaetomium globosum [30, 38] was 8 µg/mL (≈ 15.3 µM). For the same compound, the MIC Penicillium funiculosum ([31]; RPMI 1640, 35° C.) was 1 µg/mL (≈ 1.91 µM), the MFC Penicillium funiculosum [31, 38] was 2 µg/mL (≈ 3.83 µM) and the MIC100 Moraxella catarrhalis [32] was 0.84 µg/mL (≈ 1.61 µM). For the same compound, the MIC ([33]; Bacillus anthracis, 24 h, read-out: MIC100 B. anthracis (24 hr)) was 1 µg/mL (≈ 1.91 µM), the “Time course of growth inhibition of Bacillus anthracis” value ([33]; growth recorded at 2 hour intervals over 24 hours (FIG. 3)) was “complete inhibition of growth at early and late time points” and the mic (MIC100) Enterococcus faecalis ATCC 29212 [34] was 1 µg/mL. For the same compound, the “mic (MIC100) Streptococcus pyogenes” value [35] was 2 and 4, the MIC100 Bacillus globigii [36] was 3.4 µg/mL (≈ 6.51 µM) and the MIC100 Bacillus cereus [37] was 1.7 µg/mL (≈ 3.25 µM).
